# Source: BindingDB's records for doi:10.1007/BF02244985 (Mayo Clinic, 1994)
# Counter-ions that a name gives are not always drawn.
# Legend:
# [1] = target: T1, 5-hydroxytryptamine receptor 1A (Homo sapiens, UniProt P08908)
# T1 sequence (P08908 whole entry): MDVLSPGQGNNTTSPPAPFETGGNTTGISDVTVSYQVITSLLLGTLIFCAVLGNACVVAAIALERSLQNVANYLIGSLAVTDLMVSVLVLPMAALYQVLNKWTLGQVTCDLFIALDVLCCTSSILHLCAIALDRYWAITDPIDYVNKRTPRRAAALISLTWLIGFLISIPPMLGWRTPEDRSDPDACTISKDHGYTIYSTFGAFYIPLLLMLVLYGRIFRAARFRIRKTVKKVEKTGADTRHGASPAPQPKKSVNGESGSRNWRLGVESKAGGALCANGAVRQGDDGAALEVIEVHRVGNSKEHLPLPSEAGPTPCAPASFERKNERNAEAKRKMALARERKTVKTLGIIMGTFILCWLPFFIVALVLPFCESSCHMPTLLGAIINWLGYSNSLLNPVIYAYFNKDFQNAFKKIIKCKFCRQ
# D(2) dopamine receptor = D(2) dopamine receptor (Homo sapiens, UniProt P14416)
# [2] = target: T2, Alpha-1A adrenergic receptor (Homo sapiens, UniProt P35348)
# T2 sequence (P35348 whole entry): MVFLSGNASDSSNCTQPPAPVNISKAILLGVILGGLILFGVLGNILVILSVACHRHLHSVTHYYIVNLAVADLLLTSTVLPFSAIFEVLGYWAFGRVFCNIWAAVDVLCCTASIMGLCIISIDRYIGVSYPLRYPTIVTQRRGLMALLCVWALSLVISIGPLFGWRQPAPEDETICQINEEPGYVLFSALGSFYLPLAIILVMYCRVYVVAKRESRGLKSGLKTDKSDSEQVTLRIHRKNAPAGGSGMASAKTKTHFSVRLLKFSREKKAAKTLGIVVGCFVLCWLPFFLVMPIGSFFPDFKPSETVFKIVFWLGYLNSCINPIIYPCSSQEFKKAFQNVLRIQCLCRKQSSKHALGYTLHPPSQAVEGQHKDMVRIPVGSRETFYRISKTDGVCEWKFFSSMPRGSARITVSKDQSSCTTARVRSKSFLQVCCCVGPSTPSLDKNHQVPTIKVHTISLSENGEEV
# [3] = target: T3, Muscarinic acetylcholine receptor M2 (Homo sapiens, UniProt P08172)
# T3 sequence (P08172 whole entry): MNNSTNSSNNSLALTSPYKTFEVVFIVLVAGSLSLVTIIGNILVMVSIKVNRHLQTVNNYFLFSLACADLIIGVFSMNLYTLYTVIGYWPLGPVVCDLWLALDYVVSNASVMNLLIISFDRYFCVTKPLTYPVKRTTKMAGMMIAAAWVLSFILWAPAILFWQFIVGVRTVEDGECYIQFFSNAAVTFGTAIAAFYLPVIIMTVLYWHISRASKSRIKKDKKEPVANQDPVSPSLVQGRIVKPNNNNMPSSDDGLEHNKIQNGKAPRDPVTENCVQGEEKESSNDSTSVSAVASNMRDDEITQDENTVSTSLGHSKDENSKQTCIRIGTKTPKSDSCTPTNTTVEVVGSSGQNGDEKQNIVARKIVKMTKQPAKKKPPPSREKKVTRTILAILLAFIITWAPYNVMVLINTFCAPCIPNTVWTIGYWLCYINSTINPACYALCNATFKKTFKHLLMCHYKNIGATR
# [4] = target: T4, Alpha-2A adrenergic receptor (Homo sapiens, UniProt P08913)
# T4 sequence (P08913 whole entry): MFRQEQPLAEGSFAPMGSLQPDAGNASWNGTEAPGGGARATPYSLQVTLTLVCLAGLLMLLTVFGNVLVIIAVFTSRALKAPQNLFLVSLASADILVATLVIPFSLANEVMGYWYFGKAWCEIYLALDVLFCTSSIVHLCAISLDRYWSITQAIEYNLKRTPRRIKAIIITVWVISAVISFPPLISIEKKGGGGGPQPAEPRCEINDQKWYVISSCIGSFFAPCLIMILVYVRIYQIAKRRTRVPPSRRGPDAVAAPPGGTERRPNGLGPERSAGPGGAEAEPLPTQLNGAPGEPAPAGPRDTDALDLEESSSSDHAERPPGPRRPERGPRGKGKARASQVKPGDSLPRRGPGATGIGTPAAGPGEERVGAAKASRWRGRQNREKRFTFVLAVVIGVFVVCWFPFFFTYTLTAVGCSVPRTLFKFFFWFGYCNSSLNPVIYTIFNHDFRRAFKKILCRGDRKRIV
# D(2) dopamine receptor, sequence (P14416 whole entry): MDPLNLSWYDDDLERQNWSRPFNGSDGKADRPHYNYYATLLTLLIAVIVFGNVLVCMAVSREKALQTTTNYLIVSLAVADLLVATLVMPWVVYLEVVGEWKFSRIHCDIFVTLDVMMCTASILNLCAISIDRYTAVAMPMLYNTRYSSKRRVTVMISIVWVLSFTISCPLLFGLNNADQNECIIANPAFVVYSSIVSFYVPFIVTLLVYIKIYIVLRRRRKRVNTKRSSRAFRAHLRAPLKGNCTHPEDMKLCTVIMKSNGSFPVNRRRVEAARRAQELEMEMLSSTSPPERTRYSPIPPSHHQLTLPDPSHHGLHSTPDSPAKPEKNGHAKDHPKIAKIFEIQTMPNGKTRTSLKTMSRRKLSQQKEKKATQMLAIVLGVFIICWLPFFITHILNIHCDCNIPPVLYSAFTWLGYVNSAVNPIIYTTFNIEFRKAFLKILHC
SMILES,Ki [1],Ki (D(2) dopamine receptor),Ki [2],Ki [3],Ki [4]
CN(C)CCCN1c2ccccc2CCc2ccccc21,5800 nM,620 nM,32 nM,46 nM,3100 nM
CN(C)CCC=C1c2ccccc2CCc2ccccc21,450 nM,1460 nM,24 nM,–,690 nM
N[C@H]1CC[C@@H](c2ccc(Cl)c(Cl)c2)c2ccccc21,> 10000 nM,> 10000 nM,1200 nM,1430 nM,7800 nM
CN(C)CC/C=C1/c2ccccc2COc2ccccc21,–,360 nM,–,–,–
"CCc1nn(CCCN2CCN(c3cccc(Cl)c3)CC2)c(=O)n1CCOc1ccccc1 [2-{3-[4-(3-chlorophenyl)piperazin-1-yl]propyl}-5-ethyl-4-(2-phenoxyethyl)-2,4-dihydro-3H-1,2,4-triazol-3-one]",80 nM,910 nM,48 nM,–,–
"COc1ccc(OC[C@H]2CN(C)CC[C@@H]2c2ccccc2)cc1 [(3R,4S)-3-(4-Methoxy-phenoxymethyl)-1-methyl-4-phenyl-piperidine]",2290 nM,590 nM,650 nM,184 nM,1970 nM
CC(NC(C)(C)C)C(=O)c1cccc(Cl)c1 (stereo not given) [BUPROPION HYDROCHLORIDE],> 10000 nM,> 10000 nM,4200 nM,> 10000 nM,> 10000 nM
CN(CCCN1c2ccccc2CCc2ccccc21)CC(=O)c1ccc(Cl)cc1 [CAS_23047-25-8],4600 nM,2000 nM,100 nM,67 nM,2700 nM
CNCCCN1c2ccccc2CCc2ccccc21 [Desmethylimipramine],–,3500 nM,–,–,–
CNCCC(Oc1ccccc1C)c1ccccc1 (stereo not given) [Methyl-(3-phenyl-3-o-tolyloxy-propyl)-amine(tomoxetine)],–,–,3800 nM,–,–
NCC[C@H](Oc1ccc(C(F)(F)F)cc1)c1ccccc1 [NORFLUOXETINE],> 10000 nM,> 10000 nM,3900 nM,810 nM,> 10000 nM
CNCCC=C1c2ccccc2CCc2ccccc21 [NORTRIPTYLINE],294 nM,2570 nM,55 nM,37 nM,–
CN(C)Cc1nnc2n1-c1ccc(Cl)cc1C(c1ccccc1)=NC2 [NSC_37632],> 10000 nM,> 10000 nM,> 10000 nM,> 10000 nM,> 10000 nM
CCc1nn(CCCN2CCN(c3cccc(Cl)c3)CC2)c(=O)n1CC [NSC_40589],85 nM,2300 nM,38 nM,> 10000 nM,570 nM
COc1ccc(C(CN(C)C)C2(O)CCCCC2)cc1 (stereo not given) [NSC_62923],> 10000 nM,> 10000 nM,> 10000 nM,> 10000 nM,> 10000 nM
Fc1ccc([C@@H]2CCNC[C@H]2COc2ccc3c(c2)OCO3)cc1 [PAROXETINE],> 10000 nM,> 10000 nM,–,–,–
"CN[C@@H]1CC[C@@H](c2ccc(Cl)c(Cl)c2)c2ccccc21 [[4-(3,4-Dichloro-phenyl)-1,2,3,4-tetrahydro-naphthalen-1-yl]-methyl-amine]",> 10000 nM,> 10000 nM,380 nM,630 nM,–
